27 compounds from US8563542B2 (Cyclacel Limited, priority 2007, dated 2013) can be followed below.

Structures can show the parent of a compound that is named as a salt. Where only a bound is given, the exact number is not on record here.

Sequence of PLK1 (P53350 whole entry): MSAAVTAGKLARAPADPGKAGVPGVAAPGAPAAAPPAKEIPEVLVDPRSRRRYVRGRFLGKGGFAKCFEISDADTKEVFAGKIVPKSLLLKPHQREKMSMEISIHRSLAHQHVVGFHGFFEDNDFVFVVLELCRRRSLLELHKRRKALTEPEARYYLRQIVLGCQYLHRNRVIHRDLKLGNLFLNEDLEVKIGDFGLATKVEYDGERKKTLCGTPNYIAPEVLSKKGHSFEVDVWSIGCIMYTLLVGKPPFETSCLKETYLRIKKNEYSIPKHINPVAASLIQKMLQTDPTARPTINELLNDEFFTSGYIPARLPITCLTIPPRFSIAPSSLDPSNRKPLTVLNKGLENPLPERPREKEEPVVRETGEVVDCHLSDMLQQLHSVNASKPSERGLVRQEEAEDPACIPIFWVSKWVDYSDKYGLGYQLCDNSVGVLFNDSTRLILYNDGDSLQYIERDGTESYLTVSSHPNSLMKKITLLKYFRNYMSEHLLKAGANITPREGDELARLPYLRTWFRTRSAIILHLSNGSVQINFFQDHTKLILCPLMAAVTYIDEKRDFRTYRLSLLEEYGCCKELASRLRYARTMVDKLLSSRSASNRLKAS

The first experiment has as its target PLK1 (Homo sapiens, UniProt P53350). The experiment is described as follows: PLK1 protein kinase assay (CDC25C phosphorylation, [γ-32P]-ATP). Type of experiment: biochemical. Conditions: Table 1; read-out: PLK1 IC50.
For `COc1cc(C(=O)NC2CCN(C)CC2)ccc1Nc1ncc2c(n1)N(c1ccccc1)CCC(=O)N2C` [compound 30, 3-Methoxy-4-(5-methyl-6-oxo-9-phenyl-6,7,8,9-tetrahydro-5H-pyrimido[4,5-b][1,4]diazepin-2-ylamino)-N-(1-methyl-piperidin-4-yl)-benzamide], the IC50 was under 1000 nM.
For `COc1cc(C(=O)NC2CCN(C)CC2)ccc1Nc1ncc2c(n1)N(C1CCCC1)C(C(C)C)CC(=O)N2C` (stereo not shown) [compound 23, 4-(9-Cyclopentyl-8-isopropyl-5-methyl-6-oxo-6,7,8,9-tetrahydro-5H-pyrimido[4,5-b][1,4]diazepin-2-ylamino)-3-methoxy-N-(1-methyl-piperidin-4-yl)-benzamide], the IC50 was under 10000 nM.
On the same count and under the same terms, the result for `COc1cc(C(=O)NC2CCN(C)CC2)ccc1Nc1ncc2c(n1)N(C1CCCC1)CCC(=O)N2` [compound 36, 4-(9-Cyclopentyl-6-oxo-6,7,8,9-tetrahydro-5H-pyrimido[4,5-b][1,4]diazepin-2-ylamino)-3-methoxy-N-(1-methyl-piperidin-4-yl)-benzamide] reads under 10000 nM.

Still in this experiment, the particulars now being: Table 2, PLK1 IC50; class symbols; read-out: PLK1 IC50.
On to `COc1cc(C(=O)NC2CCN(C)CC2)ccc1Nc1ncc2c(n1)N(C(C)C)CC1(CC1)C(=O)N2C` [compound 99, 4-(9-Isopropyl-5-methyl-6-oxo-6,7,8,9-tetrahydro-5H-spiro[pyrimido[4,5-b][1,4]diazepin-3,1′-cyclopropane]-2-ylamino)-3-methoxy-N-(1-methyl-piperidin-4-yl)-benzamide], for which the IC50 is under 100 nM.
Regarding `COc1cc(C(=O)NC2CCN(S(C)(=O)=O)CC2)ccc1Nc1ncc2c(n1)N(C1CCCC1)CCC(=O)N2C` [compound 209, 4-(9-Cyclopentyl-5-methyl-6-oxo-6,7,8,9-tetrahydro-5H-pyrimido[4,5-b][1,4]diazepin-2-ylamino)-N-(1-methanesulfonyl-piperidin-4-yl)-3-methoxy-benzamide], the IC50 was under 1000 nM.
Regarding `COc1ccc(C(=O)NCCN2CCOCC2)cc1Nc1ncc2c(n1)N(C1CCCC1)CCC(=O)N2C` [compound 266, 3-(9-Cyclopentyl-5-methyl-6-oxo-6,7,8,9-tetrahydro-5H-pyrimido[4,5-b][1,4]diazepin-2-ylamino)-4-methoxy-N-(2-morpholin-4-yl-ethyl)-benzamide], the IC50 is under 1000 nM.
On to `COc1cc(C(=O)NC2CCN(C)CC2)ccc1Nc1ncc2c(n1)N(CCC(C)C)CCC(=O)N2C` [compound 68, 3-Methoxy-4-[5-methyl-9-(3-methyl-butyl)-6-oxo-6,7,8,9-tetrahydro-5H-pyrimido[4,5-b][1,4]diazepin-2-ylamino]-N-(1-methyl-piperidin-4-yl)-benzamide], for which the IC50 was under 1000 nM.
On the same count and under the same terms, to `COc1cc(C(=O)NCCOCCO)ccc1Nc1ncc2c(n1)N(C1CCCC1)CC1(CC1)C(=O)N2C` [compound 189, 4-(9-Cyclopentyl-5-methyl-6-oxo-6,7,8,9-tetrahydro-5H-spiro[pyrimido[4,5-b][1,4]diazepin-3,1′-cyclopropane]-2-ylamino)-N-[2-(2-hydroxy-ethoxy)-ethyl]-3-methoxy-benzamide] belongs under 100 nM.
Turning to `COc1cc(C(=O)N[C@@H]2CN3CCC2CC3)ccc1Nc1ncc2c(n1)N(C1CCCC1)CC1(CC1)C(=O)N2C` [Compound 348, (S)-4-(9′-cyclopentyl-5′-methyl-6′-oxo-5′,6′,8′,9′-tetrahydrospiro[cyclopropane-1,7′-pyrimido[4,5-b][1,4]diazepine]-2′-ylamino)-3-methoxy-N-(quinuclidin-3-yl)benzamide], the IC50 was under 100 nM.
The same measure, in the same setting: to `COc1cc(C(=O)NC2CCN(C(C)=O)CC2)ccc1Nc1ncc2c(n1)N(C1CCCC1)CCC(=O)N2C` [compound 210, N-(1-Acetyl-piperidin-4-yl)-4-(9-cyclopentyl-5-methyl-6-oxo-6,7,8,9-tetrahydro-5H-pyrimido[4,5-b][1,4]diazepin-2-ylamino)-3-methoxy-benzamide] belongs under 1000 nM; to `CN1C(=O)CCN(C2CCCC2)c2nc(NCc3ccccc3)ncc21` [compound 62, 2-Benzylamino-9-cyclopentyl-5-methyl-5,7,8,9-tetrahydro-pyrimido[4,5-b][1,4]diazepin-6-one], under 1000 nM; to `COc1ccc(C(=O)NCc2cccn2C)cc1Nc1ncc2c(n1)N(C1CCCC1)CCC(=O)N2C` [compound 268, 3-(9-Cyclopentyl-5-methyl-6-oxo-6,7,8,9-tetrahydro-5H-pyrimido[4,5-b][1,4]diazepin-2-ylamino)-4-methoxy-N-(1-methyl-1H-pyrrol-2-ylmethyl)-benzamide], under 1000 nM.
On to `COc1cc(C(=O)NCC(C)O)ccc1Nc1ncc2c(n1)N(C1CCCC1)CCC(=O)N2C` (stereo not shown) [compound 154, 4-(9-Cyclopentyl-5-methyl-6-oxo-6,7,8,9-tetrahydro-5H-pyrimido[4,5-b][1,4]diazepin-2-ylamino)-N-(2-hydroxy-propyl)-3-methoxy-benzamide], for which the IC50 was under 1000 nM.
`COc1ccc(CNc2ncc3c(n2)N(C2CCCC2)CCC(=O)N3C)cc1` [compound 92, 9-Cyclopentyl-2-(4-methoxy-benzylamino)-5-methyl-5,7,8,9-tetrahydro-pyrimido[4,5-b][1,4]diazepin-6-one]: the IC50 was under 10000 nM.
Consider `COc1cc(C(=O)NCc2ccncc2)ccc1Nc1ncc2c(n1)N(C1CCCC1)CC1(CC1)C(=O)N2C` [compound 258, 4(9-Cyclopentyl-5-methyl-6-oxo-6,7,8,9-tetrahydro-5H-pyrimido[4,5-b][1,4]diazepin-3,1′-cyclopropane-2-ylamino)-3-methoxy-N-pyridin-4-ylmethyl-benzamide], for which the IC50 was under 100 nM.
As for `COc1cc(C(=O)NC2CCN(C)CC2)ccc1Nc1ncc2c(n1)N(C1CCCC1)CC1(CC1)C(=O)N2C` [compound 341, 4-(9-Cyclopentyl-5-methyl-6-oxo-6,7,8,9-tetrahydro-5H-spiro[pyrimido[4,5-b][1,4]diazepin-3,1′-cyclopropane]-2-ylamino)-3-methoxy-N-(1-methyl-piperidin-4-yl)-benzamide mesylate], the half-inhibitory concentration (IC50) is under 100 nM.
Regarding `CN1C(=O)CCN(C2CCCC2)c2nc(NCc3cccs3)ncc21` [compound 94, 9-Cyclopentyl-5-methyl-2-[(thiophen-2-ylmethyl)-amino]-5,7,8,9-tetrahydro-pyrimido[4,5-b][1,4]diazepin-6-one], the IC50 is under 10000 nM.
Consider `COc1cc(C(=O)NN2CCN(C)CC2)ccc1Nc1ncc2c(n1)N(C1CCCC1)CCC(=O)N2C` [compound 160, 4-(9-Cyclopentyl-5-methyl-6-oxo-6,7,8,9-tetrahydro-5H-pyrimido[4,5-b][1,4]diazepin-2-ylamino)-3-methoxy-N-(4-methyl-piperazin-1-yl)-benzamide], for which the IC50 is under 100 nM.
As for `CNC(=O)CCN1CCC(=O)N(C)c2cnc(Nc3ccc(C(=O)NC4CCN(C)CC4)cc3OC)nc21` [compound 224, 3-Methoxy-4-[5-methyl-9-(2-methylcarbamoyl-ethyl)-6-oxo-6,7,8,9-tetrahydro-5H-pyrimido[4,5-b][1,4]diazepin-2-ylamino]-N-(1-methyl-piperidin-4-yl)-benzamide], the IC50 was under 1000 nM.
As to `COc1cc(C(=O)NC2CCN(C)CC2)ccc1Nc1ncc2c(n1)N(CC1CC1)CC1(CC1)C(=O)N2C` [compound 262, 4-(9-Cyclopropylmethyl-5-methyl-6-oxo-6,7,8,9-tetrahydro-5H-pyrimido[4,5-b][1,4]diazepin-3,1′-cyclopropane-2-ylamino)-3-methoxy-N-(1-methyl-piperidin-4-yl)-benzamide], the IC50 was under 100 nM.
The same measure, in the same setting: the result for `COc1ccc(N2CCC(=O)N(C)c3cnc(Nc4ccc(C(=O)NC5CC(C)(C)N(C)C(C)(C)C5)cc4OC)nc32)cc1` [compound 318] reads under 1000 nM; that for `COc1cc(C(=O)NCCCN(C)C)ccc1Nc1ncc2c(n1)N(C1CCCC1)CCC(=O)N2C` [compound 149, 4-(9-Cyclopentyl-5-methyl-6-oxo-6,7,8,9-tetrahydro-5H-pyrimido[4,5-b][1,4]diazepin-2-ylamino)-N-(3-dimethylamino-propyl)-3-methoxy-benzamide], under 1000 nM; that for `CNC(=O)c1ccc(Nc2ncc3c(n2)N(C(C)C)CC2(CC2)C(=O)N3C)c(OC)c1` [compound 113, 4-(9-Isopropyl-5-methyl-6-oxo-6,7,8,9-tetrahydro-5H-spiro[pyrimido[4,5-b][1,4]diazepin-3,1′-cyclopropane]-2-ylamino)-3-methoxy-N-methyl-benzamide], under 1000 nM.

The same experiment, now with this note: Table 3; read-out: PLK1 IC50.
Consider `CCN1CCCN(C2CCC(NC(=O)c3ccc(Nc4ncc5c(n4)N(C4CCCC4)CC4(CC4)C(=O)N5C)c(OC)c3)CC2)CC1` (stereo not shown) [Compound 382, 4-(9′-cyclopentyl-5′-methyl-6′-oxo-5′,6′,8′,9′-tetrahydrospiro[cyclopropane-1,7′-pyrimido[4,5-b][1,4]diazepine]-2′-ylamino)-N-(4-(4-ethyl-1,4-diazepan-1-yl)cyclohexyl)-3-methoxybenzamide], for which the IC50 is under 100 nM.
As to `COc1cc(C(=O)N[C@@H]2CN3CCC2CC3)ccc1Nc1ncc2c(n1)N(C1CCCC1)CC1(CC1)C(=O)N2C` [Compound 348, (S)-4-(9′-cyclopentyl-5′-methyl-6′-oxo-5′,6′,8′,9′-tetrahydrospiro[cyclopropane-1,7′-pyrimido[4,5-b][1,4]diazepine]-2′-ylamino)-3-methoxy-N-(quinuclidin-3-yl)benzamide], the IC50 is under 100 nM.
Take `COc1cc(C(=O)N[C@H]2CC[C@H](N3CCOCC3)CC2)ccc1Nc1ncc2c(n1)N(C1CCCC1)CC1(CC1)C(=O)N2C` [Compound 390, 4-(9′-cyclopentyl-5′-methyl-6′-oxo-5′,6′,8′,9′-tetrahydrospiro[cyclopropane-1,7′-pyrimido[4,5-b][1,4]diazepine]-2′-ylamino)-3-methoxy-N-((trans)-4-morpholinocyclohexyl)benzamide]: the IC50 is under 100 nM.
Consider `COc1cc(C(=O)N[C@H]2CC[C@H](N3CCN(Cc4ccccc4)CC3)CC2)ccc1Nc1ncc2c(n1)N(C1CCCC1)CC1(CC1)C(=O)N2C` [Compound 386, N-((trans)-4-(4-benzylpiperazin-1-yl)cyclohexyl)-4-(9′-cyclopentyl-5′-methyl-6′-oxo-5′,6′,8′,9′-tetrahydrospiro[cyclopropane-1,7′-pyrimido[4,5-b][1,4]diazepine]-2′-ylamino)-3-methoxybenzamide], for which the IC50 was under 100 nM.
On the same count and under the same terms, to `COc1cc(C(=O)NC2CCC(N3CCCN(Cc4ccccc4)CC3)CC2)ccc1Nc1ncc2c(n1)N(C1CCCC1)CC1(CC1)C(=O)N2C` (stereo not shown) [Compound 383, N-(4-(4-benzyl-1,4-diazepan-1-yl)cyclohexyl)-4-(9′-cyclopentyl-5′-methyl-6′-oxo-5′,6′,8′,9′-tetrahydrospiro[cyclopropane-1,7′-pyrimido[4,5-b][1,4]diazepine]-2′-ylamino)-3-methoxybenzamide] belongs 100 to 1000 nM.

What is called IC50 is the midpoint of a concentration-inhibition curve.
